In general, inhibition in vivo refers to the share of the control response that was lost under treatment. Read a high inhibition in vivo as strong suppression.

Common to all, as to type: functional
The subject of test [1] is Rattus norvegicus. Briefly: Percentage dose required to prevent lesion formation in gastric mucosa of unanesthetized rats upon intraperitoneal administration of 1 mg/kg dose in the HCl/ethanol-induced lesion model. Particulars: ip.
Test [2] concerns Rattus norvegicus. In words: Percentage dose required to prevent lesion formation in gastric mucosa of unanesthetized rats upon intraperitoneal administration of 10 mg/kg dose in the HCl/ethanol-induced lesion model. The conditions noted are these: ip.
The subject of test [3] is Rattus norvegicus. Briefly: Percentage dose required to prevent lesion formation in gastric mucosa of unanesthetized rats upon intraperitoneal administration of 3 mg/kg dose in the HCl/ethanol-induced lesion model. The conditions noted are these: ip.
Test [4] has as its system Rattus norvegicus. In words: Percent inhibition against pentagastrin-stimulated acid secretion upon intraperitoneal administration of 10 mg/kg dose to urethane anesthetized rats. Particulars: ip.
In test [5] the test system is Rattus norvegicus. In words: Percentage dose required to prevent lesion formation in gastric mucosa of unanesthetized rats upon intraperitoneal administration 30 min prior to an oral dose of HCl/ethanol.
Test [6] relates to Rattus norvegicus. In words: Dose required to prevent lesion formation in gastric mucosa of unanesthetized rats upon subcutaneous administration.

Regarding `CO[C@@H]1C[C@H](O[C@@H]2C=C(C)C[C@@]3(O)[C@H](OC(C)=O)[C@H](O)C4=C(C(=O)c5ccc([C@H]6C[C@@H](O[C@H]7C[C@](C)(O)[C@H](O[C@H]8CC[C@H](NC(N)=O)[C@@H](C)O8)[C@@H](C)O7)[C@H](O)[C@@H](C)O6)c(O)c5C4=O)[C@@]23O)O[C@@H](C)[C@H]1O` [COMPOUND P371 A], the inhibition in vivo at 1 mg/kg in test [1] is 52.6%. Further, the inhibition in vivo at 10 mg/kg in test [2] worked out at 83.6%; in test [4] it was 61%. The same molecule showed an inhibition in vivo at 3 mg/kg in test [3] of 81.6%. The “% dose” value in test [5] is 60%.

As for `COc1ccc2c(c1)c(CC(=O)O)c(C)n2C(=O)c1ccc(Cl)cc1` [INDOMETHACIN], the Dose in test [6] worked out at 25 mg/kg. The same molecule displayed an inhibition in vivo at 1 mg/kg in test [1] of 57%. Besides, the inhibition in vivo at 10 mg/kg in test [2] worked out at 72.8%. The molecule further gave an inhibition in vivo at 3 mg/kg in test [3] of 64.9%.

The values are drawn from ChEMBL document CHEMBL1130902, “Novel angucycline compound with both antigastrin- and gastric mucosal protective-activities” (1998).
